Experimental data as given in patent US4499083A, “3-O-Demethyl derivatives of the istamycin B series of compounds” (Zaidan Hojin Biseibutsu Kagaku Kenkyu Kai, priority 1980, dated 1985).
Converted amounts (≈) assume the structure as drawn. Where two headings read alike, the source gives them in different places.

Tests used:
Type in all cases: cell-based
[1] = system: Pseudomonas aeruginosa GN315; assay: Antibacterial spectrum, MIC by serial dilution on nutrient agar; details: 37° C., 17 hours, read-out: Minimum inhibitory concentration
Proteus rettgeri GN466 = assay: as above; details: Providencia rettgeri, read-out: Minimum inhibitory concentration
[2] = system: Pseudomonas maltophilia GN 907; assay: as above; details: Stenotrophomonas maltophilia, GN907, 37° C., 17 hours, read-out: Minimum inhibitory concentration
[3] = system: Corynebacterium bovis 1810; assay: as above; details: read-out: Minimum inhibitory concentration
[4] = system: Staphylococcus aureus Ap01; assay: as above; details: 37° C., 17 hours, read-out: Minimum inhibitory concentration
[5] = system: Escherichia coli JR66/W677; assay: as above; details: JR66/W677, 17 h, read-out: Minimum inhibitory concentration
Bacillus anthracis = assay: microbe, parasite or virus in culture; details: 17 h, read-out: Minimum inhibitory concentration
Escherichia coli K-12 = assay: Antibacterial spectrum, MIC by serial dilution on nutrient agar; details: K12, 37° C., 17 hours, read-out: Minimum inhibitory concentration
[6] = system: Pseudomonas aeruginosa B-13; assay: as above; details: B13, 37° C., 17 hours, read-out: Minimum inhibitory concentration
[7] = system: Klebsiella pneumoniae 22#3038; assay: as above; details: 37° C., 17 hours, read-out: Minimum inhibitory concentration
Description: (§1) The antibacterial spectra of 3-O-demethylistamycin B.sesquicarbonate and 3-O-demethyl-2"-N-formimidoylistamycin B.disulphate.trihydrate are shown in Table 2, along with that of istamycin B for comparison purposes.
(§2) Minimum inhibitory concentrations (mcg/ml)*^1
(§3) *^1 Determined according to a standard serial dilution method on
(§4) nutrient agar plates which were incubated at 37° C. for 17 hours.

Shigella sonnei JS11746 = assay: as above; details: 37° C., 17 hours, read-out: Minimum inhibitory concentration
Description: as §1, §2, §3, §4

[8] = system: Escherichia coli K-12 C600 R135; assay: as above; details: K12C600R135, 37° C., 17 hours, read-out: Minimum inhibitory concentration
Description: as §1, §2, §3, §4

[9] = system: Escherichia coli K-12 ML1630; assay: as above; details: K12ML1630, 37° C., 17 hours, read-out: Minimum inhibitory concentration
Description: as §1, §2, §3, §4

[10] = system: Escherichia coli K-12 ML1629; assay: as above; details: K12ML1629, 37° C., 17 hours, read-out: Minimum inhibitory concentration
Description: as §1, §2, §3, §4

[11] = system: Shigella flexneri 4B JS11811; assay: as above; details: 4BJS11811, 37° C., 17 hours, read-out: Minimum inhibitory concentration
Description: as §1, §2, §3, §4

[12] = system: Escherichia coli K-12 R388; assay: as above; details: K12R388, 17 h, read-out: Minimum inhibitory concentration
Escherichia coli JR255 = assay: as above; details: read-out: Minimum inhibitory concentration
[13] = system: Bacillus cereus ATCC 10702; assay: as above; details: read-out: Minimum inhibitory concentration
[14] = system: Staphylococcus epidermidis 109; assay: as above; details: 37° C., 17 hours, read-out: Minimum inhibitory concentration
Escherichia coli NIHJ = assay: as above; details: read-out: Minimum inhibitory concentration
[15] = system: Escherichia coli K-12 LA290 R55; assay: as above; details: K12LA290R55, 17 h, read-out: Minimum inhibitory concentration
[16] = system: Pseudomonas aeruginosa A3; assay: as above; details: 37° C., 17 hours, read-out: Minimum inhibitory concentration
Serratia marcescens = assay: as above; details: read-out: Minimum inhibitory concentration
Escherichia coli W677 = assay: as above; details: read-out: Minimum inhibitory concentration
[17] = system: Escherichia coli K-12 LA290 R56; assay: as above; details: K12LA290R56, 17 h, read-out: Minimum inhibitory concentration
[18] = system: Pseudomonas aeruginosa H11; assay: as above; details: 37° C., 17 hours, read-out: Minimum inhibitory concentration
Proteus vulgaris OX19 = assay: as above; details: 37° C., 17 hours, read-out: Minimum inhibitory concentration
Serratia sp. SOU = assay: as above; details: 37° C., 17 hours, read-out: Minimum inhibitory concentration
[19] = system: Bacillus subtilis NRRL B-558; assay: as above; details: read-out: Minimum inhibitory concentration
[20] = system: Klebsiella pneumoniae PCI602; assay: as above; details: 37° C., 17 hours, read-out: Minimum inhibitory concentration
Escherichia coli K-12 R5 = assay: as above; details: K12R5, 17 h, read-out: Minimum inhibitory concentration
Salmonella typhi T-63 = assay: as above; details: Salmonella enterica, 17 h, read-out: Minimum inhibitory concentration
[21] = system: Micrococcus flavus FDA 16; assay: as above; details: FDA16, 37° C., 17 hours, read-out: Minimum inhibitory concentration
[22] = system: Escherichia coli K-12 ML1410 R81; assay: as above; details: K12ML1410R81, 17 h, read-out: Minimum inhibitory concentration
Serratia sp. 4 = assay: as above; details: 37° C., 17 hours, read-out: Minimum inhibitory concentration
Providencia sp. 2991 = assay: as above; details: 37° C., 17 hours, read-out: Minimum inhibitory concentration
[23] = system: Pseudomonas aeruginosa PST1; assay: as above; details: 37° C., 17 hours, read-out: Minimum inhibitory concentration
[24] = Corynebacterium bovis 1810, nutrient agar, 37° C., 17 hours
[25] = Escherichia coli JR255, nutrient agar, 37° C., 17 hours
[26] = ATCC10702, Bacillus cereus ATCC 10702, nutrient agar, 37° C., 17 hours
[27] = Escherichia coli NIHJ, nutrient agar, 37° C., 17 hours
[28] = Escherichia coli W677, nutrient agar, 37° C., 17 hours
[29] = NRRLB558, Bacillus subtilis NRRL B-558, nutrient agar, 37° C., 17 hours
[30] = nutrient agar, 37° C., 17 hours

Row | Structure (SMILES) | MIC [1] [µg/mL] | MIC [2] [µg/mL] | MIC [4] [µg/mL] | MIC [5] [µg/mL] | MIC (Bacillus anthracis) [µg/mL] | MIC (Escherichia coli K-12) [µg/mL] | MIC [6] [µg/mL] | MIC [7] [µg/mL] | MIC (Shigella sonnei JS11746) [µg/mL] | MIC [8] [µg/mL] | MIC [9] [µg/mL] | MIC [10] [µg/mL] | MIC [11] [µg/mL] | MIC [12] [µg/mL] | MIC [14] [µg/mL] | MIC [15] [µg/mL] | MIC [16] [µg/mL] | MIC [17] [µg/mL] | MIC [18] [µg/mL] | MIC (Proteus vulgaris OX19) [µg/mL] | also measured
1 | CNCC1CCC(N)C(OC2C(N)CC(O)C(N(C)C(=O)CNC=N)C2O)O1 (stereo not drawn) [3-O-Demethyl-2"-N-formimidoylistamycin B] | 6.25 (≈ 15.5 µM) | > 100 | 0.78 (≈ 1.94 µM) | 3.13 (≈ 7.78 µM) | < 0.2 | 1.56 (≈ 3.88 µM) | > 100 | 3.13 (≈ 7.78 µM) | 3.13 (≈ 7.78 µM) | 12.5 (≈ 31.1 µM) | 1.56 (≈ 3.88 µM) | 1.56 (≈ 3.88 µM) | 3.13 (≈ 7.78 µM) | 1.56 (≈ 3.88 µM) | 0.78 (≈ 1.94 µM) | 1.56 (≈ 3.88 µM) | 1.56 (≈ 3.88 µM) | 1.56 (≈ 3.88 µM) | 25 (≈ 62.1 µM) | 0.39 (≈ 0.969 µM) | MIC (Proteus rettgeri GN466; GN466, 17 h): 3.13 µg/mL (≈ 7.78 µM); MIC [3, 24]: 0.78 µg/mL (≈ 1.94 µM); MIC (Escherichia coli JR255; [25]): 0.78 µg/mL (≈ 1.94 µM); MIC [13, 26]: 1.56 µg/mL (≈ 3.88 µM); MIC (Escherichia coli NIHJ; [27]): 1.56 µg/mL (≈ 3.88 µM); MIC (Serratia marcescens; 17 h): 3.13 µg/mL (≈ 7.78 µM); MIC (Escherichia coli W677; [28]): 0.78 µg/mL (≈ 1.94 µM); MIC (Serratia sp. SOU): > 100 µg/mL; MIC [19, 29]: < 0.2 µg/mL; MIC [20]: 1.56 µg/mL (≈ 3.88 µM); MIC (Escherichia coli K-12 R5): 3.13 µg/mL (≈ 7.78 µM); MIC (Salmonella typhi T-63): 0.78 µg/mL (≈ 1.94 µM); MIC [21]: < 0.2 µg/mL; MIC [22]: 1.56 µg/mL (≈ 3.88 µM); MIC (Serratia sp. 4): 6.25 µg/mL (≈ 15.5 µM); MIC (Providencia sp. 2991): 12.5 µg/mL (≈ 31.1 µM); MIC [23]: 25 µg/mL (≈ 62.1 µM)
2 | CNCC1CCC(N)C(OC2C(N)CC(O)C(N(C)C(=O)CN)C2O)O1 (stereo not drawn) [3-O-Demethylistamycin B] | 12.5 (≈ 33.3 µM) | > 100 | 0.78 (≈ 2.08 µM) | 6.25 (≈ 16.6 µM) | < 0.2 | 3.13 (≈ 8.34 µM) | 50 (≈ 133 µM) | 6.25 (≈ 16.6 µM) | 6.25 (≈ 16.6 µM) | 6.25 (≈ 16.6 µM) | 3.13 (≈ 8.34 µM) | 3.13 (≈ 8.34 µM) | 6.25 (≈ 16.6 µM) | 1.56 (≈ 4.15 µM) | 0.78 (≈ 2.08 µM) | 6.25 (≈ 16.6 µM) | 3.13 (≈ 8.34 µM) | 3.13 (≈ 8.34 µM) | 25 (≈ 66.6 µM) | 0.78 (≈ 2.08 µM) | MIC (Proteus rettgeri GN466; GN466, 17 h): 6.25 µg/mL (≈ 16.6 µM); MIC ([3]; Corynebacterium bovis, 1810, 17 h): 1.56 µg/mL (≈ 4.15 µM); MIC (Escherichia coli JR255; Escherichia coli, JR255, 17 h): 1.56 µg/mL (≈ 4.15 µM); MIC ([13]; Bacillus cereus, ATCC10702, 17 h): 1.56 µg/mL (≈ 4.15 µM); MIC (Escherichia coli NIHJ; Escherichia coli, 17 h): 1.56 µg/mL (≈ 4.15 µM); MIC (Serratia marcescens; [30]): 12.5 µg/mL (≈ 33.3 µM); MIC (Escherichia coli W677; Escherichia coli, W677, 17 h): 1.56 µg/mL (≈ 4.15 µM); MIC (Serratia sp. SOU): 25 µg/mL (≈ 66.6 µM); MIC ([19]; Bacillus subtilis, NRRLB558, 17 h): < 0.2 µg/mL; MIC [20]: 3.13 µg/mL (≈ 8.34 µM); MIC (Escherichia coli K-12 R5): 6.25 µg/mL (≈ 16.6 µM); MIC (Salmonella typhi T-63): 1.56 µg/mL (≈ 4.15 µM); MIC [21]: 3.13 µg/mL (≈ 8.34 µM); MIC [22]: 3.13 µg/mL (≈ 8.34 µM); MIC (Serratia sp. 4): 12.5 µg/mL (≈ 33.3 µM); MIC (Providencia sp. 2991): 12.5 µg/mL (≈ 33.3 µM); MIC [23]: 50 µg/mL (≈ 133 µM)
3 | CNCC1CCC(N)C(OC2C(N)CC(OC)C(N(C)C(=O)CN)C2O)O1 (stereo not drawn) [Istamycin B, istamycin B] | 50 (≈ 128 µM) | > 100 | 0.78 (≈ 2 µM) | 3.13 (≈ 8.04 µM) | < 0.2 | 1.56 (≈ 4.01 µM) | > 100 | 3.13 (≈ 8.04 µM) | 3.13 (≈ 8.04 µM) | 12.5 (≈ 32.1 µM) | 1.56 (≈ 4.01 µM) | 1.56 (≈ 4.01 µM) | 3.13 (≈ 8.04 µM) | 1.56 (≈ 4.01 µM) | 0.78 (≈ 2 µM) | 3.13 (≈ 8.04 µM) | 6.25 (≈ 16 µM) | 1.56 (≈ 4.01 µM) | 50 (≈ 128 µM) | 0.39 (≈ 1 µM) | MIC (Proteus rettgeri GN466; Proteus rettgeri GN466, nutrient agar, 37° C., 17 hours): 6.25 µg/mL (≈ 16 µM); MIC [3, 24]: 0.78 µg/mL (≈ 2 µM); MIC (Escherichia coli JR255; [25]): 0.78 µg/mL (≈ 2 µM); MIC [13, 26]: 1.56 µg/mL (≈ 4.01 µM); MIC (Escherichia coli NIHJ; [27]): 1.56 µg/mL (≈ 4.01 µM); MIC (Serratia marcescens; [30]): 6.25 µg/mL (≈ 16 µM); MIC (Escherichia coli W677; [28]): 1.56 µg/mL (≈ 4.01 µM); MIC (Serratia sp. SOU): 100 µg/mL (≈ 257 µM); MIC [19, 29]: < 0.2 µg/mL; MIC [20]: 1.56 µg/mL (≈ 4.01 µM); MIC (Escherichia coli K-12 R5): 3.13 µg/mL (≈ 8.04 µM); MIC (Salmonella typhi T-63): 0.39 µg/mL (≈ 1 µM); MIC [21]: 6.25 µg/mL (≈ 16 µM); MIC [22]: 1.56 µg/mL (≈ 4.01 µM); MIC (Serratia sp. 4): 50 µg/mL (≈ 128 µM); MIC (Providencia sp. 2991): 6.25 µg/mL (≈ 16 µM); MIC [23]: 100 µg/mL (≈ 257 µM)
